Measurements from US4689333A, “2-(2-pyridylmethylthio (sulfinyl)) benzimidazoles” (Takeda Chemical Industries, Ltd., priority 1984, dated 1987).

Assay: Anti-ulcer action: indomethacin-induced gastric antral ulcer in rats
Assay type: in vivo, Male Sprague-Dawley rats
Conditions: Rattus norvegicus, po, 5 h, p.o., 30 min before indomethacin 30 mg/kg s.c., 6 rats per group, doses 1, 3, 10 and 30 mg/kg, read-out: Anti-ulcer action ID50
Description: As the models of gastrointestinal ulcers, restraint and water-immersion stress-induced ulcer, indomethacin-induced ulcer and ethanol-induced gastric mucosal lesions have been used. However, as a model mimicking human gastric ulcer, indomethacin-induced gastric antral ulcer was reported in "Gastroenterology" (Satoh et al. 81, p. 719, 1981), which is considered to be of value as an experimental model. Therefore, the following are data of anti-ulcer actions of the object compounds (I) and of some representable known compounds, on the ulcer model in the above-mentioned literature reference.
Male Sprague-Dawley rats of 7-weeks old were fasted for 24 hours. These animals were administered test compounds into stomach by using a gastric tube. After 30 minutes, indomethacin, 30 mg/kg subcutaneously, was administered. During 30-90 minutes after the administration of indomethacin, these animals had free access to chow pellets (Japan Clea, CE-2). At 5 hours after the administration of indomethacin, 1 ml of 1% Evans blue was injected to the animals via the tail vein, followed by sacrificing these animals with carbon dioxide gas. The stomach was removed together with the lower part of esophagus and the duodenum. The esophagus was clipped, 10 ml of 1% formalin solution was instilled into the stomach from the duodenum, and then the duodenum was clipped. The whole stomach was immersed in 1% formalin solution. About 15 minutes later, the stomachs were opened along the greater curvature. The area of the lesions which occurred in the gastric antral mucosa was measured under a dissecting microscope with a square-grid eye piece (x10). The sum total of the individual lesions in each animal was measured, and the average value per group was calculated. Based on the difference between the average value of each group and that of the control group, the inhibition rate was determined. The test compound and indomethahacin were suspended in a 5% gum arabic solution, respectively and administered in a volume of 2 ml/kg.
^(a) Using 6 rats per group, each of the test compounds was
administered in a dose of 1, 3, 10 and 30 mg/kg to determine ID50.

Q: With [O-][S+](Cc1cc(OCC(F)(F)C(F)F)ccn1)c1nc2ccccc2[nH]1 (centres unmarked) as the compound, how does the ED50 read?
A: 1.3 mg/kg

Q: Which ED50 does the source give for [O-][S+](Cc1cc(OCC(F)(F)F)ccn1)c1nc2ccccc2[nH]1 (centres unmarked) [R^1=H, R^2=H, R^3=H, R^4=CH2 CF3, n=1] here?
A: 2.4 mg/kg

Q: With Cc1c(OCC(F)(F)C(F)F)ccnc1C[S+]([O-])c1nc2ccccc2[nH]1 (centres unmarked) as the compound, how does the ED50 read?
A: < 1 mg/kg

Q: For [O-][S+](Cc1cc(OCC(F)(F)C(F)(F)F)ccn1)c1nc2ccccc2[nH]1 (centres unmarked), which ED50 is on record?
A: 1.3 mg/kg

Q: Which ED50 does the source give for Cc1c(OCC(F)(F)C(F)(F)F)ccnc1C[S+]([O-])c1nc2ccccc2[nH]1 (centres unmarked) [2-[3-methyl-4-(2,2,3,3,3-pentafluoropropoxy)pyrid-2-yl]methylsulfinylbenzimidazole] here?
A: < 1 mg/kg

Q: Which ED50 does the source give for Cc1c(OCC(F)(F)F)ccnc1C[S+]([O-])c1nc2ccccc2[nH]1 (centres unmarked) [R^1=H, R^2=CH3, R^3=H, R^4=CH2 CF3, n=1, 2-[3methyl-4-(2,2,2-trifluoroethoxy)-pyrid-2-yl]methylsulfinylbenzimidazo] here?
A: < 1 mg/kg

Q: With Cc1c(OCC(F)(F)C(F)(F)F)ccnc1CSc1nc2ccccc2[nH]1 [2-[3-methyl-4-(2,2,3,3,3-pentafluoropropoxy)-pyrid-2-yl]methylthiobenzimidazole] as the compound, how does the ED50 read?
A: 3.7 mg/kg

Assay: Toxicity, oral administration to mice
Assay type: in vivo
Conditions: even in a dose of 2000 mg/kg

Q: With Cc1c(OCC(F)(F)C(F)(F)F)ccnc1C[S+]([O-])c1nc2ccccc2[nH]1 (centres unmarked) [2-[3-methyl-4-(2,2,3,3,3-pentafluoropropoxy)pyrid-2-yl]methylsulfinylbenzimidazole] as the compound, how does the “fatal effect on oral administration” value read?
A: no fatal effect
